{
  "source": "patent US20170304286A1",
  "about": "(LAUNX BIOMEDICAL CO., LTD., priority 2014, published 2017)",
  "format_in_all_cases": "cell-based",
  "key": {"[1]": {"tested_on": "pancreatic cancer cells", "test": "Summary of cell viability, pancreatic cancer", "conditions": "72 h, read-out: Inhibitory effect", "experimental": "(§1) Removing the original culture medium from 96-well plate. Then add 100 μl of commercially drug at a concentration of 10 μM per well. After 72 hours, add the diluted WST-1 reagent to the well with 100 μl/well, and the diluted WST-1 reagent was acquired from the dilution of 9:1 medium and WST-1 stock reagent. Finally, the total volume of each well was 200 μl/well. Culture the 96-well plate at 37° C. for 30 to 90 minutes. Detecting and calculate the survival rate of each cancer cells with an ELISA reader at OD450 nm."}, "[2]": {"tested_on": "U2OS", "test": "WST-1 cell viability, osteosarcoma cell line U2OS", "conditions": "Homo sapiens, 72 h", "experimental": "(§2) The cell numbers were counted and reseed as 2×10^6 in culture plate/flask. Then, the culture medium were added to a volume of 10 ml, and the cells were cultured for 2-3 days. Then, the cells were suspended for loading into 96-well plates. The number of cells was 3000 and the volume of the culture medium was 100 μl each well.\nas §1"}, "[3]": {"tested_on": "ovarian cancer cells", "test": "Summary of cell viability, ovarian cancer", "conditions": "72 h, read-out: Inhibitory effect", "experimental": "as §1"}, "[4]": {"tested_on": "LoVo(Colorectal Adenocarcinoma)", "test": "WST-1 cell viability, colorectal cancer cell line LoVo", "conditions": "Homo sapiens, 72 h", "experimental": "as §2, §1"}, "[5]": {"tested_on": "HeLa (CervixAdenocarcinoma)", "test": "WST-1 cell viability, cervical cancer cell line HeLa", "conditions": "Homo sapiens, 72 h", "experimental": "as §2, §1"}, "[6]": {"tested_on": "cervical cancer cells", "test": "Summary of cell viability, cervical cancer", "conditions": "72 h, read-out: Inhibitory effect", "experimental": "as §1"}, "[7]": {"tested_on": "786-O (Renal adenocarcinoma)", "test": "WST-1 cell viability, renal cancer cell line 786-O", "conditions": "Homo sapiens", "experimental": "as §2, §1"}, "[8]": {"tested_on": "breast cancer cells", "test": "Summary of cell viability, breast cancer", "conditions": "72 h, read-out: Inhibitory effect", "experimental": "as §1"}, "[9]": {"tested_on": "MKN-45 (Gastric Adenocarcinoma)", "test": "WST-1 cell viability, gastric cancer cell line MKN-45", "conditions": "Homo sapiens", "experimental": "as §2, §1"}, "[10]": {"tested_on": "HCT116-wt", "test": "WST-1 cell viability, colorectal cancer cell line HCT116-wt", "conditions": "72 h", "experimental": "as §2, §1"}, "[11]": {"tested_on": "LNCap", "test": "WST-1 cell viability, prostate cancer cell line LNCap", "conditions": "Homo sapiens, 72 h", "experimental": "as §2, §1"}, "[12]": {"test": "WST-1 cell viability, normal kidney cell line HEK293", "conditions": "human, HEK293 normal kidney cells", "experimental": "as §2, §1"}, "[13]": {"tested_on": "PC-3", "test": "WST-1 cell viability, prostate cancer cell line PC-3", "conditions": "Homo sapiens", "experimental": "as §2, §1"}, "[14]": {"test": "WST-1 cell viability, normal pulmonary epithelial cell line BEAS-2B", "conditions": "human, BEAS-2B normal bronchial (pulmonary) epithelial cells", "description": "Subculture the different types of cancer cells."}, "[15]": {"conditions": "average of 4 tests, read-out: survival rate (inhibition effect), Average"}},
  "note": "Read-outs that look alike come from different tables or passages of the source.",
  "data": [
    {"smiles": "Fc1ccc([C@@H]2CCNC[C@H]2COc2ccc3c(c2)OCO3)cc1", "note": "[Paroxetine]", "values": [
      {"measurement": "viability at 10 µM", "setting": "[1]", "result": 77.4, "unit": "%"},
      {"measurement": "viability at 10 µM", "setting": "[2]; [15]", "result": 33.2, "unit": "%"},
      {"measurement": "viability at 10 µM", "setting": "[2]; run 6-26-10 min, read-out: survival rate (inhibition effect)", "result": 40.6, "unit": "%"},
      {"measurement": "viability at 10 µM", "setting": "[2]; run 6-28-10 min, read-out: survival rate (inhibition effect)", "result": 30.8, "unit": "%"},
      {"measurement": "viability at 10 µM", "setting": "[2]; run 6-30-10 min, read-out: survival rate (inhibition effect)", "result": 30.3, "unit": "%"},
      {"measurement": "viability at 10 µM", "setting": "[2]; run 7-3-10 min, read-out: survival rate (inhibition effect)", "result": 31.1, "unit": "%"},
      {"measurement": "viability at 10 µM", "setting": "[2]; summary, osteosarcoma, read-out: Inhibitory effect", "result": 33.2, "unit": "%"},
      {"measurement": "viability at 10 µM", "setting": "[3]", "result": 86.5, "unit": "%"},
      {"measurement": "viability at 10 µM", "setting": "[4]; [15]", "result": 58, "unit": "%"},
      {"measurement": "viability at 10 µM", "setting": "[4]; run 0616-10 min, read-out: survival rate (inhibition effect)", "result": 54.1, "unit": "%"},
      {"measurement": "viability at 10 µM", "setting": "[4]; run 0619-10 min, read-out: survival rate (inhibition effect)", "result": 51.5, "unit": "%"},
      {"measurement": "viability at 10 µM", "setting": "[4]; run 0621-10 min, read-out: survival rate (inhibition effect)", "result": 77.3, "unit": "%"},
      {"measurement": "viability at 10 µM", "setting": "[4]; run 0623-10 min, read-out: survival rate (inhibition effect)", "result": 48.9, "unit": "%"},
      {"measurement": "viability at 10 µM", "setting": "[5]; [15]", "result": 63.8, "unit": "%"},
      {"measurement": "viability at 10 µM", "setting": "[5]; run 0524-10 min, read-out: survival rate (inhibition effect)", "result": 52.6, "unit": "%"},
      {"measurement": "viability at 10 µM", "setting": "[5]; run 0526-10 min, read-out: survival rate (inhibition effect)", "result": 78.3, "unit": "%"},
      {"measurement": "viability at 10 µM", "setting": "[5]; run 0529-10 min, read-out: survival rate (inhibition effect)", "result": 51, "unit": "%"},
      {"measurement": "viability at 10 µM", "setting": "[5]; run 0531-10 min, read-out: survival rate (inhibition effect)", "result": 73.4, "unit": "%"},
      {"measurement": "viability at 10 µM", "setting": "[6]", "result": 63.8, "unit": "%"},
      {"measurement": "viability at 10 µM", "setting": "[7]; 786-0, 786-O, 72 h, run 0524-10 min, read-out: survival rate (inhibition effect)", "result": 35.2, "unit": "%"},
      {"measurement": "viability at 10 µM", "setting": "[7]; 786-0, 786-O, 72 h, run 0526-10 min, read-out: survival rate (inhibition effect)", "result": 24, "unit": "%"},
      {"measurement": "viability at 10 µM", "setting": "[7]; 786-0, 786-O, 72 h, run 0529-10 min, read-out: survival rate (inhibition effect)", "result": 14.6, "unit": "%"},
      {"measurement": "viability at 10 µM", "setting": "[7]; 786-0, 786-O, 72 h, run 0531-10 min, read-out: survival rate (inhibition effect)", "result": 22.3, "unit": "%"},
      {"measurement": "viability at 10 µM", "setting": "[7]; 786-0, 72 h, 786-O, average of 4 tests, read-out: survival rate (inhibition effect), Average", "result": 24, "unit": "%"},
      {"measurement": "viability at 10 µM", "setting": "[7]; 786-0, 72 h, summary, renal cancer, read-out: Inhibitory effect", "result": 72.5, "unit": "%"},
      {"measurement": "viability at 10 µM", "setting": "[8]", "result": 46.5, "unit": "%"},
      {"measurement": "viability at 10 µM", "setting": "[9]; MKN-45, 72 h, MKN-45, average of 4 tests, read-out: survival rate (inhibition effect), Average", "result": 40.5, "unit": "%"},
      {"measurement": "viability at 10 µM", "setting": "[9]; MKN-45, MKN-45, 72 h, run 0510-10 min, read-out: survival rate (inhibition effect)", "result": 36.2, "unit": "%"},
      {"measurement": "viability at 10 µM", "setting": "[9]; MKN-45, MKN-45, 72 h, run 0512-10 min, read-out: survival rate (inhibition effect)", "result": 52, "unit": "%"},
      {"measurement": "viability at 10 µM", "setting": "[9]; MKN-45, MKN-45, 72 h, run 0515-10 min, read-out: survival rate (inhibition effect)", "result": 37.8, "unit": "%"},
      {"measurement": "viability at 10 µM", "setting": "[9]; MKN-45, MKN-45, 72 h, run 0517-10 min, read-out: survival rate (inhibition effect)", "result": 36, "unit": "%"},
      {"measurement": "viability at 10 µM", "setting": "[10]; [15]", "result": 28.4, "unit": "%"},
      {"measurement": "viability at 10 µM", "setting": "[10]; run 0602-30 min, read-out: survival rate (inhibition effect)", "result": 23.8, "unit": "%"},
      {"measurement": "viability at 10 µM", "setting": "[10]; run 0605-10 min, read-out: survival rate (inhibition effect)", "result": 30.6, "unit": "%"},
      {"measurement": "viability at 10 µM", "setting": "[10]; run 0607-10 min, read-out: survival rate (inhibition effect)", "result": 29.7, "unit": "%"},
      {"measurement": "viability at 10 µM", "setting": "[10]; run 0609-10 min, read-out: survival rate (inhibition effect)", "result": 29.5, "unit": "%"},
      {"measurement": "viability at 10 µM", "setting": "[11]; [15]", "result": 71.7, "unit": "%"},
      {"measurement": "viability at 10 µM", "setting": "[11]; run LNCap-1-10 min, read-out: survival rate (inhibition effect)", "result": 65.9, "unit": "%"},
      {"measurement": "viability at 10 µM", "setting": "[11]; run LNCap-2-20 min, read-out: survival rate (inhibition effect)", "result": 61.7, "unit": "%"},
      {"measurement": "viability at 10 µM", "setting": "[11]; run LNCap-3-20 min, read-out: survival rate (inhibition effect)", "result": 80.9, "unit": "%"},
      {"measurement": "viability at 10 µM", "setting": "[11]; run LNCap-4-20 min, read-out: survival rate (inhibition effect)", "result": 78.3, "unit": "%"},
      {"measurement": "viability at 72 h, 10 µM", "setting": "[12]; HEK293, average of 4 tests, read-out: survival rate (inhibition effect), Average", "result": 71.4, "unit": "%"},
      {"measurement": "viability at 72 h, 10 µM", "setting": "[12]; HEK293, run 0602-30 min, read-out: survival rate (inhibition effect)", "result": 64.9, "unit": "%"},
      {"measurement": "viability at 72 h, 10 µM", "setting": "[12]; HEK293, run 0605-30 min, read-out: survival rate (inhibition effect)", "result": 76.8, "unit": "%"},
      {"measurement": "viability at 72 h, 10 µM", "setting": "[12]; HEK293, run 0607-30 min, read-out: survival rate (inhibition effect)", "result": 76, "unit": "%"},
      {"measurement": "viability at 72 h, 10 µM", "setting": "[12]; HEK293, run 0609-30 min, read-out: survival rate (inhibition effect)", "result": 67.8, "unit": "%"},
      {"measurement": "viability at 72 h, 10 µM", "setting": "[12]; summary, kidney cell, read-out: Inhibitory effect", "result": 71.4, "unit": "%"},
      {"measurement": "viability at 10 µM", "setting": "[13]; PC-3, 72 h, PC-3, average of 4 tests, read-out: survival rate (inhibition effect), Average", "result": 44.1, "unit": "%"},
      {"measurement": "viability at 10 µM", "setting": "[13]; PC-3, PC-3, 72 h, run PC-3-0524-10 min, read-out: survival rate (inhibition effect)", "result": 33.5, "unit": "%"},
      {"measurement": "viability at 10 µM", "setting": "[13]; PC-3, PC-3, 72 h, run PC-3-0526-10 min, read-out: survival rate (inhibition effect)", "result": 61.6, "unit": "%"},
      {"measurement": "viability at 10 µM", "setting": "[13]; PC-3, PC-3, 72 h, run PC-3-0529-10 min, read-out: survival rate (inhibition effect)", "result": 39.3, "unit": "%"},
      {"measurement": "viability at 10 µM", "setting": "[13]; PC-3, PC-3, 72 h, run PC-3-0531-10 min, read-out: survival rate (inhibition effect)", "result": 41.8, "unit": "%"},
      {"measurement": "viability at 72 h, 10 µM", "setting": "[14]; BEAS-2B, average of 4 tests, read-out: survival rate (inhibition effect), Average", "result": 98.6, "unit": "%"},
      {"measurement": "viability at 72 h, 10 µM", "setting": "[14]; BEAS-2B, run 0512-10 min, read-out: survival rate (inhibition effect)", "result": 103, "unit": "%"},
      {"measurement": "viability at 72 h, 10 µM", "setting": "[14]; BEAS-2B, run 0515-10 min, read-out: survival rate (inhibition effect)", "result": 96.4, "unit": "%"},
      {"measurement": "viability at 72 h, 10 µM", "setting": "[14]; BEAS-2B, run 0517-10 min, read-out: survival rate (inhibition effect)", "result": 94.6, "unit": "%"},
      {"measurement": "viability at 72 h, 10 µM", "setting": "[14]; summary, pulmonary epithelial cell line, read-out: Inhibitory effect", "result": 98.6, "unit": "%"}
    ]}
  ]
}
